Assay results: patent publication US20150225404A1, “PYRIDINE DERIVATIVE AND MEDICINE” (NIPPON SHINYAKU CO., LTD., priority 2012, published 2015)
Where a name gives a salt, the structure may show the parent alone.

Target: T1, human mGluR5 (Homo sapiens, UniProt P41594)
T1 construct: expressed in transfected cells
Experiment: Experiment for receptor function of mGluR5 (Ca2+-dependent fluorescence, FLIPR, CHO-K1 cells stably expressing human mGluR5)
Format: cell-based
Details: L-glutamic acid 10 μM, Fluo-4 fluorescence
Description: Stable expression cells in which the human mGluR5 gene had been introduced into a Chinese hamster ovary cell (CHO-K1) were used for evaluation. The cells were suspended in a growth medium (MEM-α (D8042, available from Sigma) containing 10% inactivated FBS (Cat. No. 171012, available from CCB) and 2 mM glutamax (Cat. No. 35050, available from GIBCO)) and seeded on a black clear-bottom 96-well plate at 100,000 cells per well. One day after seeding, the medium was replaced by a medium (Hanks' balanced salt solution (HBSS buffer solution) (20 mM HEPES, 2.5 mM probencide (165-15472, available from Wako Pure Chemical Industries, Ltd.), and 10×HBSS (14065-056, available from Gibco) diluted 10 times, pH 7.4)) containing a calcium-sensitive dye Fluo-4 AM at a final concentration of […] (F312, available from Dojindo Laboratories) and Pluronic F-127 at a final concentration of 0.0145% (P-2443, available from Sigma), followed by incubation at 37° C. for one hour, thereby loading Fluo-4 AM into the cells.
Subsequently, the cells were washed twice with an HBSS buffer solution, to which was subsequently added the same buffer solution. Twenty minutes thereafter, the plate was transferred into a fluorescence screening system (FLIPR TETRA, available from Molecular Devices, LLC) and measured for a Ca^2+-dependent fluorescence change in the cells.
First of all, a fluorescence baseline was measured, and thereafter, fluorescence measurement was performed for 2 minutes while adding a test substance, an excessive amount of 6-methyl-2-(phenylethynyl)pyridine (hereinafter referred to as “MPEP”) (final concentration: 10 μM), or the medium. Thereafter, fluorescence measurement was carried out for one minute while adding L-glutamic acid (final concentration: 10 μM).
While taking a fluorescence intensity caused by L-glutamic acid as 100% and a fluorescence intensity caused by L-glutamic acid in the presence of MPEP as 0%, respectively, function inhibitory activity against human mGluR5 was evaluated from the fluorescence intensity caused by L-glutamic acid in the presence of the test substance at each concentration, and an IC50 value was estimated according to a logistic equation (SAS System).

T1 sequence (P41594 21-1212): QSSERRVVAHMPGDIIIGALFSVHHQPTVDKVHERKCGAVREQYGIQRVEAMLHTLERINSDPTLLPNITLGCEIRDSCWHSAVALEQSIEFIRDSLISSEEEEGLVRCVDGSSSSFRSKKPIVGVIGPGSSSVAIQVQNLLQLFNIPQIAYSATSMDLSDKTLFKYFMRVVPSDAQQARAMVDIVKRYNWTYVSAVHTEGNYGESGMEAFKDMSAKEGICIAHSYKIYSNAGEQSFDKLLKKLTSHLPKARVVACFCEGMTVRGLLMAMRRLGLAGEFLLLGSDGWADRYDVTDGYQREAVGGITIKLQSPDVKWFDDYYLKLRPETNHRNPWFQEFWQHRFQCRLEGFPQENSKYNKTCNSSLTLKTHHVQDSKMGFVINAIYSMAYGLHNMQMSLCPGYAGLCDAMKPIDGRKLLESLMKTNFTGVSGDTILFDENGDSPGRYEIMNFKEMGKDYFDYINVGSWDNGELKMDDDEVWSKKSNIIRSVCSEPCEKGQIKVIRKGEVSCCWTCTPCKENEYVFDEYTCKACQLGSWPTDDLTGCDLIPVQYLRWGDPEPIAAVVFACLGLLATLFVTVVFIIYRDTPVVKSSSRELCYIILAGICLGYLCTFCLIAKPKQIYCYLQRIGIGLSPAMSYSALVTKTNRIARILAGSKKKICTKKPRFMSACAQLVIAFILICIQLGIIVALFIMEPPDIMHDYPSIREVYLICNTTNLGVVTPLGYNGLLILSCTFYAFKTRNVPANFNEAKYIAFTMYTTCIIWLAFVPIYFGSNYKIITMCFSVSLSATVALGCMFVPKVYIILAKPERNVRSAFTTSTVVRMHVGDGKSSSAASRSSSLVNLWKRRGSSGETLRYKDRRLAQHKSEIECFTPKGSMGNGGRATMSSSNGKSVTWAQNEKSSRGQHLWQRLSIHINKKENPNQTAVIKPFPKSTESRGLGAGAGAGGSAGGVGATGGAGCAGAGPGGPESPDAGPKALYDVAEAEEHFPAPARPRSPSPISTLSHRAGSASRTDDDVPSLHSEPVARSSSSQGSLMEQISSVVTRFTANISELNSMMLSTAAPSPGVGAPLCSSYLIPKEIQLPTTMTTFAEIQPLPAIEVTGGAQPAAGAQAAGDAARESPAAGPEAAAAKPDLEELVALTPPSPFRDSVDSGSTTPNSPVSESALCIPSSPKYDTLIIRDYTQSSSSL

Compound	IC50 [nM]
N#Cc1ccc(COc2cc(-c3cncc(CO)n3)c3c(n2)CCCC3)nc1 [Example 288, 6-[({4-[6-(Hydroxymethyl)pyrazin-2-yl]-5,6,7,8-tetrahydroquinolin-2-yl}oxy)methyl]pyridine-3-carbonitrile]	119
FC(F)(F)c1cccc(COc2cc(-c3cncnc3)c3c(n2)CCCC3)n1 [Example 154, 4-(Pyrimidin-5-yl)-2-{[6-(trifluoromethyl)pyridin-2-yl]methoxy}-5,6,7,8-tetrahydroquinoline hydrochloride]	280
N#Cc1ccc(COc2cc(-c3cncnc3)c3c(n2)CCCC3)cc1 [Example 278, 4-({[4-(Pyrimidin-5-yl)-5,6,7,8-tetrahydroquinolin-2-yl]oxy}methyl)benzonitrile]	87
CNc1cccc(COc2cc(-c3cncnc3)c3c(n2)CCCC3)n1 [Example 158, N-Methyl-6-({[4-(pyrimidin-5-yl)-5,6,7,8-tetrahydroquinolin-2-yl]oxy}methyl)pyridin-2-amine]	253
Cc1cc(COc2cc(-c3cnc(C)nc3)c3c(n2)CCC3)ccn1 [Example 262, 2-[(2-Methylpyridin-4-yl)methoxy]-4-(2-methylpyrimidin-5-yl)-6,7-dihydro-5H-cyclopenta[b]pyridine]	82
Cc1cc(COc2cc(-c3cnc(C)nc3)c3c(n2)CCCC3)ccn1 [Example 286, 2-[(2-Methylpyridin-4-yl)methoxy]-4-(2-methylpyrimidin-5-yl)-5,6,7,8-tetrahydroquinoline]	95
CN(C)c1cncc(-c2cc(OCc3ccccn3)nc3c2CCCC3)c1 [Example 126, N,N-Dimethyl-5-[2-(pyridin-2-ylmethoxy)-5,6,7,8-tetrahydroquinolin-4-yl]pyridin-3-amine]	99.8
N#Cc1cccc(COc2cc(-c3cncc(CO)c3)c3c(n2)CCC3)c1 [Example 253, 3-[({4-[5-(Hydroxymethyl)pyridin-3-yl]-6,7-dihydro-5H-cyclopenta[b]pyridin-2-yl}oxy)methyl]benzonitrile]	80
N#Cc1ccc(COc2cc(-c3cnc(N)nc3)c3c(n2)CCC3)cc1 [Example 264, 4-({[4-(2-Aminopyrimidin-5-yl)-6,7-dihydro-5H-cyclopenta[b]pyridin-2-yl]oxy}methyl)benzonitrile]	126
Fc1cccc(COc2cc(-c3cncnc3)c3c(n2)CCCC3)c1 [Example 281, 2-[(3-Fluorobenzyl)oxy]-4-(pyrimidin-5-yl)-5,6,7,8-tetrahydroquinoline]	94
N#Cc1ccnc(COc2cc(-c3cncnc3)c3c(n2)CCCC3)c1 [Example 151, 2-({[4-(Pyrimidin-5-yl)-5,6,7,8-tetrahydroquinolin-2-yl]oxy}methyl)pyridine-4-carbonitrile]	439
N#Cc1cccc(COc2cc(-c3ccnc(F)c3)c3c(n2)CCC3)c1 [Example 251, 3-({[4-(2-Fluoropyridin-4-yl)-6,7-dihydro-5H-cyclopenta[b]pyridin-2-yl]oxy}methyl)benzonitrile]	94.3
COC(=O)c1cncc(-c2cc(OCc3ccccn3)nc3c2CCCC3)c1 [Example 116, Methyl 5-[2-(pyridin-2-ylmethoxy)-5,6,7,8-tetrahydroquinolin-4-yl]pyridine-3-carboxylate]	133
Cc1ncc(-c2cc(OCc3cccc(F)c3)nc3c2CCC3)cn1 [Example 266, 2-[(3-Fluorobenzyl)oxy]-4-(2-methylpyrimidin-5-yl)-6,7-dihydro-5H-cyclopenta[b]pyridine]	71
Clc1cnc(-c2cc(OCc3ccccn3)nc3c2CCCC3)cn1 [Example 196, 4-(5-Chloropyrazin-2-yl)-2-(pyridin-2-ylmethoxy)-5,6,7,8-tetrahydroquinoline hydrochloride]	170
Cc1ncc(-c2cc(OCc3ccc(C#N)cc3)nc3c2CCC3)cn1 [Example 261, 4-({[4-(2-Methylpyrimidin-5-yl)-6,7-dihydro-5H-cyclopenta[b]pyridin-2-yl]oxy}methyl)benzonitrile]	64
Fc1cncc(-c2cc(OCc3ccccn3)nc3c2CCCC3)c1 [Example 107, 4-(5-Fluoropyridin-3-yl)-2-(pyridin-2-ylmethoxy)-5,6,7,8-tetrahydroquinoline hydrochloride]	81.2
COCc1cccc(COc2cc(-c3cncnc3)c3c(n2)CCCC3)n1 [Example 160, 2-{[6-(Methoxymethyl)pyridin-2-yl]methoxy}-4-(pyrimidin-5-yl)-5,6,7,8-tetrahydroquinoline hydrochloride]	152
N#Cc1ccc(COc2cc(-c3cccnn3)c3c(n2)CCC3)cc1 [Example 273, 4-({[4-(Pyridazin-3-yl)-6,7-dihydro-5H-cyclopenta[b]pyridin-2-yl]oxy}methyl)benzonitrile]	62

The next compounds have a lower IC50 than those just listed; values first:

IC50 [nM]	Compound
47.3	Fc1ccnc(-c2cc(OCc3ccccn3)nc3c2CCCC3)c1 [Example 223, 4-(4-Fluoropyridin-2-yl)-2-(pyridin-2-ylmethoxy)-5,6,7,8-tetrahydroquinoline]
16.2	Cc1cccc(COc2cc(-c3cccnc3)c3c(n2)CCCC3)n1 [Example 83, 2-[(6-Methylpyridin-2-yl)methoxy]-4-(pyridin-3-yl)-5,6,7,8-tetrahydroquinoline]
36	Fc1cccc(COc2cc(-c3cncnc3)c3c(n2)CCC3)n1 [Example 24, 2-[(6-Fluoropyridin-2-yl)methoxy]-4-(pyrimidin-5-yl)-6,7-dihydro-5H-cyclopenta[b]pyridine]
27.3	Nc1ncc(-c2cc(OCc3ccccn3)nc3c2CCC3)cn1 [Example 259, 5-[2-(Pyridin-2-ylmethoxy)-6,7-dihydro-5H-cyclopenta[b]pyridin-4-yl]pyrimidin-2-amine hydrochloride]
15	c1csc(COc2cc(-c3cncnc3)c3c(n2)CCC3)c1 [Example 34, 4-(Pyrimidin-5-yl)-2-(thiophen-2-ylmethoxy)-6,7-dihydro-5H-cyclopenta[b]pyridine]
28	N#Cc1ccc(COc2cc(-c3cncc(CO)c3)c3c(n2)CCCC3)nc1 [Example 276, 6-[({4-[5-(Hydroxymethyl)pyridin-3-yl]-5,6,7,8-tetrahydroquinolin-2-yl}oxy)methyl]pyridine-3-carbonitrile]
28.9	c1ccc(COc2cc(-c3cccnc3)c3c(n2)CCCCC3)nc1 [Example 232, 4-(Pyridin-3-yl)-2-(pyridin-2-ylmethoxy)-6,7,8,9-tetrahydro-5H-cyclohepta[b]pyridine]
42	Cc1csc(COc2cc(-c3cccnc3)c3c(n2)CCCC3)n1 [Example 95, 2-[(4-Methyl-1,3-thiazol-2-yl)methoxy]-4-(pyridin-3-yl)-5,6,7,8-tetrahydroquinoline]
23.4	Fc1ccc(-c2cc(OCc3ccccn3)nc3c2CCCC3)cn1 [Example 101, 4-(6-Fluoropyridin-3-yl)-2-(pyridin-2-ylmethoxy)-5,6,7,8-tetrahydroquinoline dihydrochloride]
15.1	Fc1cccc(COc2cc(-c3cccnc3)c3c(n2)CCCC3)n1 [Example 86, 2-[(6-Fluoropyridin-2-yl)methoxy]-4-(pyridin-3-yl)-5,6,7,8-tetrahydroquinoline]
51.7	N#Cc1ccc(-c2cc(OCc3ccccn3)nc3c2CCCC3)cn1 [Example 104, 5-[2-(Pyridin-2-ylmethoxy)-5,6,7,8-tetrahydroquinolin-4-yl]pyridine-2-carbonitrile hydrochloride]
58	Clc1ccc(COc2cc(-c3cncnc3)c3c(n2)CCC3)s1 [Example 35, 2-[(5-Chlorothiophen-2-yl)methoxy]-4-(pyrimidin-5-yl)-6,7-dihydro-5H-cyclopenta[b]pyridine]
20	N#Cc1cncc(-c2cc(OCc3ccccn3)nc3c2CCC3)n1 [Example 54, 6-[2-(Pyridin-2-ylmethoxy)-6,7-dihydro-5H-cyclopenta[b]pyridin-4-yl]pyrazine-2-carbonitrile hydrochloride]
24.5	Fc1cncc(-c2cc(OCc3ccccn3)nc3c2CCCC3)n1 [Example 199, 4-(6-Fluoropyrazin-2-yl)-2-(pyridin-2-ylmethoxy)-5,6,7,8-tetrahydroquinoline hydrochloride]
41.4	COCc1cccc(COc2cc(-c3cccnc3)c3c(n2)CCCC3)n1 [Example 89, 2-{[6-(Methoxymethyl)pyridin-2-yl]methoxy}-4-(pyridin-3-yl)-5,6,7,8-tetrahydroquinoline]
55	N#Cc1ncc(-c2cc(OCc3ccc(F)cn3)nc3c2CCC3)cn1 [Example 49, 5-{2-[(5-Fluoropyridin-2-yl)methoxy]-6,7-dihydro-5H-cyclopenta[b]pyridin-4-yl}pyrimidine-2-carbonitrile]
